# Reference: article PMC6079014, “Calcium is an essential cofactor for metal efflux by the ferroportin transporter family” (Nature Communications, 2018)
# Read-outs that look alike come from different tables or passages of the source.
# Legend:
# wild type BbFpn = wild type BbFpn (Bdellovibrio bacteriovorus, UniProt Q6MLJ0); experiment: biochemical; format: binding, Bdellovibrio bacteriovorous
# human Fpn = target: T1, human Fpn (Homo sapiens, UniProt Q9NP59); experiment: Radiotracer metal efflux assay in Xenopus oocytes expressing human Fpn; format: cell-based; details: for Ability of other alkaline-earth metals to substitute for Ca2+ in activating 55Fe efflux: Ca2+-free media, 2 mM Sr or Ba plus 1 mM Mg2+, or 3 mM Mg2+; for Effect on 55Fe efflux of pharmacologically raising the cytosolic Ca2+ concentration: 1 µM ionomycin (IMN) or 2 µM thapsigargin (THG), media with 0.2% DMSO
# T1 construct: expressed in transfected cells; host or cells: Xenopus laevis oocytes injected with Fpn RNA
# T1 sequence (Q9NP59 1-571): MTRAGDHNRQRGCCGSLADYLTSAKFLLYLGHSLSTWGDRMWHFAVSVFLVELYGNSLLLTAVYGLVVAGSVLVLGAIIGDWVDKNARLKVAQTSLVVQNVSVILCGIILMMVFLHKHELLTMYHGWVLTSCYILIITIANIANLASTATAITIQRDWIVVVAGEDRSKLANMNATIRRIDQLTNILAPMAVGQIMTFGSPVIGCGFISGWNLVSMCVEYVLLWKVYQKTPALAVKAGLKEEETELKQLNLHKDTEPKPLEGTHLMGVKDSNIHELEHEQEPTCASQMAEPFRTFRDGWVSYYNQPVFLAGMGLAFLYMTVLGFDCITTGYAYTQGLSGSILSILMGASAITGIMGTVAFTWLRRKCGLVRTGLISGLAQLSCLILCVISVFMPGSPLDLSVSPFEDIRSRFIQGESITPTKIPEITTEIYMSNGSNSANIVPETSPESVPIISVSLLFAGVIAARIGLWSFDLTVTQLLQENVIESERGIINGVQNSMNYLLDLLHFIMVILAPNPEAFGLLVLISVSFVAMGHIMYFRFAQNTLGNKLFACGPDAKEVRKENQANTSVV
# Protocol: We performed laparotomy and ovariectomy on adult female Xenopus laevis frogs (Nasco, Fort Atkinson, WI) under 2-aminoethylbenzoate methanesulfonate anesthesia (0.2%, by immersion, to effect) following a protocol approved by the University of Cincinnati Institutional Animal Care and Use Committee. Ovarian tissue was isolated and treated for 3 h with […] collagenase A (Roche Diagnostics Corp., Indianapolis, IN) in calcium-free-modified Barths’ medium (MBM) of composition 88 mM NaCl, 1 mM KCl, 2.4 mM NaHCO3, 1.57 mM MgSO4, 0.66 mM NaNO3, 10 mM 4-(2-hydroxyethyl)-1-piperazineethanesulfonic acid (HEPES), buffered to pH 7.5 by using 2-amino-2-hydroxymethyl-propane-1,3-diol (Tris base). We isolated defolliculate stage V–VI oocytes stored at 17 °C in MBM of composition 88 mM NaCl, 1 mM KCl, 2.4 mM NaHCO3, 0.82 MgSO4, 0.75 mM CaCl2, 0.66 mM NaNO3, 10 mM HEPES, buffered to pH 7.5 by using Tris base, with 50 mg l^−1 ciprofloxacin. We expressed in Xenopus oocytes the 1A transcript form of human Fpn fused at its C-terminus with the enhanced green fluorescent protein (GFP) as described. Oocytes were injected with ∼50 ng of Fpn RNA and incubated for 4–6 days before being used in functional assays. Control oocytes were noninjected.
# We measured metal efflux from oocytes expressing Fpn by using a radiotracer assay. Radiochemicals ^55Fe, ^45Ca, ^57Co, ^65Zn were obtained from Perkin-Elmer Life Science Products (Boston, MA) and ^63Ni from the National Isotope Development Center (Oak Ridge, TN). We used ^55Fe (added as FeCl3) at final specific activity 0.4–2.0 GBq mg^−1, ^45Ca (added as CaCl2) at final specific activity 0.5–0.9 GBq mg^−1, ^57Co (added as CoCl2) at final specific activity 1.6 GBq mg^−1, ^65Zn (added as ZnCl2) at final specific activity 0.2 GBq mg^−1, and ^63Ni (added as NiCl2) at final specific activity 0.6 GBq mg^−1. Oocytes were injected with 50 nl of 5 μM metal radionuclide (*M) in vehicle of composition 250 mM KCl, 5 mM nitrilotriacetic acid, trisodium salt, buffered to pH 7.0 with ∼4 mM 2-(N-morpholino)ethanesulfonic acid (MES) (GFS Chemicals, Columbus, OH). After injection, oocytes were briefly stored in ice-cold MBM (for 1–5 min) prior to the start of the efflux assay.
# To initiate the efflux assay, we placed oocytes in standard efflux medium of composition 100 mM NaCl, 1 mM KCl, 2 mM CaCl2, 1 mM MgCl2, 0.5 mM bathophenanthroline disulfonic acid (BPS), 1 mM nitrilotriacetic acid (NTA) trisodium salt, 50 μg/ml apotransferrin (ApoTf) (R&D Systems Inc., Minneapolis, MN), buffered with 0–5 mM MES, and 0–5 mM N′,N′-diethylpiperazine to obtain pH 7.5, with the following exceptions. To prepare Ca^2+-free medium, we replaced 2 mM CaCl2 with 4 mM NaCl and added 1 mM ethylene glycol-bis(2-aminoethyl ether)-N,N,N′,N′-tetraacetic acid (EGTA). To prepare Mg^2+-free medium, we replaced […] MgCl2 with 4 mM NaCl and added 1 mM ethylenediaminetetraacetic acid (EDTA). To measure ^55Fe efflux as a function of extracellular [Ca^2+] over the range 0.1–20 mM Ca^2+ (Figs. 1c, 6b), we adjusted [NaCl] and [CaCl2] on a 2:1 molar basis without the addition of EGTA. Oocytes were then transferred individually in 200 µl of medium to flat-bottomed wells of a 96-well plate and incubated 30 min—within the linear phase of metal efflux[10] —at 23–27 °C with gentle rocking. To terminate efflux, we removed 150 µl of medium (0.75 × [N0–Nt]) from each well for liquid-scintillation counting in Ultima Gold liquid-scintillation cocktail (Perkin-Elmer, Waltham, MA). The corresponding oocytes were rinsed twice in ice-cold medium (without BPS), solubilized with 5% (w/v) sodium dodecyl sulfate, and counted (Nt). We fit our data for oocyte radiotracer content (N) over time (Eq. (1)) and obtained the first-order rate constant (k) for metal radionuclide (*M) efflux for individual oocytes. N0 and Nt are counts per min (cpm) in the oocyte at time = 0 and time = t, respectively.1 Nt=N0⋅exp(-k⋅t) […]
# BbFpn Q84E = BbFpn Q84E (Bdellovibrio bacteriovorus, UniProt Q6MLJ0, Q84E); experiment: Isothermal titration calorimetry, Q84E BbFpn; format: binding, Bdellovibrio bacteriovorous
# BbFpn Q84E, sequence (Q6MLJ0 whole entry Q84E): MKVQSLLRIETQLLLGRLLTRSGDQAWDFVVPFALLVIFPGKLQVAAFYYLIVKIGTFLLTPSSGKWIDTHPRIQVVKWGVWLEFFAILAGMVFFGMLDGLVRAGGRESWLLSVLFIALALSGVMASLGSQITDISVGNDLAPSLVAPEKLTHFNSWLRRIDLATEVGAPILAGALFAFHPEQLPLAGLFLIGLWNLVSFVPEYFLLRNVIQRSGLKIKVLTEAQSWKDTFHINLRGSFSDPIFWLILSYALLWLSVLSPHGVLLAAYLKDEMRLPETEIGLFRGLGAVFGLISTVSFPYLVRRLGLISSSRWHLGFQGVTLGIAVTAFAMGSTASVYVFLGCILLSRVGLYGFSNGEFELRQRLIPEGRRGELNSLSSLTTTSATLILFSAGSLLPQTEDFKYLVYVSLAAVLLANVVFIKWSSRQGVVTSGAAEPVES
# BbFpn D24A = BbFpn D24A (Bdellovibrio bacteriovorus, UniProt Q6MLJ0, D24A); experiment: Isothermal titration calorimetry, D24A BbFpn; format: binding, Bdellovibrio bacteriovorous
# BbFpn D24A, sequence (Q6MLJ0 whole entry D24A): as the sequence (Q6MLJ0 whole entry Q84E) above, with D24A, E84Q counted along it
# BbFpn N196A = BbFpn N196A (Bdellovibrio bacteriovorus, UniProt Q6MLJ0, N196A); experiment: Isothermal titration calorimetry, N196A BbFpn; format: binding, Bdellovibrio bacteriovorous
# BbFpn N196A, sequence (Q6MLJ0 whole entry N196A): as the sequence (Q6MLJ0 whole entry Q84E) above, with E84Q, N196A counted along it
# BbFpn E203A = BbFpn E203A (Bdellovibrio bacteriovorus, UniProt Q6MLJ0, E203A); experiment: Isothermal titration calorimetry, E203A BbFpn; format: binding, Bdellovibrio bacteriovorous
# BbFpn E203A, sequence (Q6MLJ0 whole entry E203A): as the sequence (Q6MLJ0 whole entry Q84E) above, with E84Q, E203A counted along it
# [1] = Supplementary Figs. 5 and 9, one experiment
# wild type BbFpn, sequence (Q6MLJ0 whole entry): as the sequence (Q6MLJ0 whole entry Q84E) above, with E84Q counted along it
smiles,measurement,setting,value
"[Mg+2] [Mg^2+, magnesium]",Binding to wild type BbFpn by ITC (in words),wild type BbFpn; same experimental conditions as for Ca2+,no observable binding
same,Ability of other alkaline-earth metals to substitute for Ca2+ in activating 55Fe efflux,human Fpn,could not
"C/C=C(/C)C(=O)O[C@H]1C(C)=C2[C@H]([C@@H]1OC(=O)CCCCCCC)[C@@](C)(OC(C)=O)C[C@H](OC(=O)CCC)[C@@]1(O)[C@H]2OC(=O)[C@@]1(C)O [thapsigargin, reference compound]",Effect on 55Fe efflux of pharmacologically raising the cytosolic Ca2+ concentration,human Fpn,no effect
[Ba+2] [barium],Ability of other alkaline-earth metals to substitute for Ca2+ in activating 55Fe efflux,human Fpn,could not
"C[C@H](CCC(=O)O)C[C@H](C)C[C@H](C)C(=O)/C=C(\O)[C@H](C)C[C@H](C)C/C=C/[C@@H](C)[C@@H](O)[C@@H](C)[C@@H](O)C[C@@H]1CC[C@@](C)([C@H]2CC[C@@](C)([C@@H](C)O)O2)O1 [ionomycin, reference compound]",Effect on 55Fe efflux of pharmacologically raising the cytosolic Ca2+ concentration,human Fpn,no effect
[K+] [K^+],Binding to wild type BbFpn by ITC (in words),wild type BbFpn,no observable binding
[Na+] [Na^+],Effect of extracellular Na+ replacement with choline on Fpn-mediated 55Fe efflux,human Fpn; presence or absence of 100 mM extracellular Na+,unaffected
"[Sr+2] [Sr^2+, strontium]",Binding to Q84E BbFpn by ITC (in words),BbFpn Q84E,no Ca^2+ or Sr^2+ binding
same,Kd,"wild type BbFpn; 20 °C, 20 mM Tris pH 8, 50 mM NaCl, 0.004% LMNG, read-out: Kd (ITC)",4.6e-05 ± 3.3e-06 M
same,"-TΔS, ITC",wild type BbFpn; [1],-19.2 kcal/mol
same,"N (sites), ITC",wild type BbFpn; [1],0.478 ± 6.1e-2
same,"ΔG, ITC",wild type BbFpn; [1],-5.83 kcal/mol
same,"ΔH, ITC",wild type BbFpn; [1],13.4 ± 1.90 kcal/mol
same,Kd,"wild type BbFpn; Supplementary Figs. 5 and 9, one experiment, read-out: KD (M), ITC",4.57e-05 M
same,Ability of other alkaline-earth metals to substitute for Ca2+ in activating 55Fe efflux,human Fpn,could partially substitute
same,Binding to D24A BbFpn by ITC (in words),BbFpn D24A,complete loss
same,Binding to N196A BbFpn by ITC (in words),BbFpn N196A,complete loss
same,Binding to E203A BbFpn by ITC (in words),BbFpn E203A,complete loss
